pIC50: −log10 of the molar value.
Test system: HIV-1 (strain IIIB)
Test: MT4 Cell Antiviral Assay
Type: cell-based
Settings: Human immunodeficiency virus 1, 120 h; HIV-1 strain IIIB in MT4 cells, 5 days, Cell Titer-Glo; 50% decrease in HIV-induced cytopathic effect
Protocol: Antiviral HIV activity and compound-induced cytotoxicity were measured in parallel based on a modified protocol of the propidium iodide based procedure in the human T-cell lymphotropic virus transformed cell line MT4. Aliquots of the test compounds were serially diluted in DMSO plated in 96-well plates. Exponentially growing MT4 cells were harvested and pelleted. Cell pellets were resuspended in fresh medium (RPMI 1640, 10% FCS, and gentamycin. Cell aliquots were infected by the addition of HIV-1 (strain IIIB) diluted to give a viral multiplicity of infection of 300×TCID50/million cells. A similar cell aliquot was diluted with medium to provide a mock-infected control. Cell infection was allowed to proceed for 1 hr at 37° C. in a tissue culture incubator with humidified 5% CO2 atmosphere. After the 1 hr incubation the virus/cell suspensions were diluted with fresh medium, and added to each well of the plate containing pre-diluted compound. Plates were then placed in a tissue culture incubator with humidified 5% CO2 for 5 days. […] The plates were analyzed in an automated plate reader for luminescence.assay. The control and standard used was efavirinz tested over a concentration range of 0.001 to 1 μM in every assay. The expected range of IC50 values for efavirinz is 0.1 to 1 nM.
The antiviral effect of a test compound is reported as an IC50, i.e. the inhibitory concentration that would produce a 50% decrease in the HIV-induced cytopathic effect. This effect is measured by the amount of test compound required to restore 50% of the cell growth of HIV-infected MT4 cells, compared to uninfected MT4 cell controls. IC50 was calculated by RoboSage, Automated Curve Fitting Program.
For each assay plate, the results (of wells containing uninfected cells or infected cells with no compound were averaged, respectively. For measurements of compound-induced cytotoxicty, results from wells containing various compound concentrations and uninfected cells were compared to the average of uninfected cells without compound treatment. Percent of cells remaining is determined by the following formula: Percent of cells remaining=(compound-treated uninfected cells/untreated uninfected cells)×100.
A level of percent of cells remaining of 79% or less indicates a significant level of direct compound-induced cytotoxicity for the compound at that concentration. When this condition occurs the results from the compound-treated infected wells at this concentration are not included in the calculation of IC50.
For measurements of compound antiviral activity, results from wells containing various compound concentrations and infected cells are compared to the average of uninfected and infected cells without compound treatment. Percent inhibition of virus is determined by the following formula: Percent inhibition of virus=(1−((ave. untreated uninfected cells−treated infected cells)/(ave. untreated uninfected cells−ave. untreated infected cells)))×100

SMILES	pIC50
CC(C)C1=C2[C@H]3CC[C@@H]4[C@@]5(C)CC[C@H](OC(=O)CC(C)(C)C(=O)O)C(C)(C)[C@@H]5CC[C@@]4(C)[C@]3(C)CC[C@@]2(/C=C/C(=O)N[C@@H](C)c2ncccn2)CC1=O [Example 11, 4-(((3aS,5aR,5bR,7aR,9S,11aR,11bR,13aS)-1-isopropyl-5a,5b,8,8,11a-pentamethyl-2-oxo-3a-((E)-3-oxo-3-(((S)-1-(pyrimidin-2-yl)ethyl)amino)prop-1-en-1-yl)-3,3a,4,5,5a,5b,6,7,7a,8,9,10,11,11a,11b,12,13,13a-octadecahydro-2H-cyclopenta[a]chrysen-9-yl)oxy)-2,2-dimethyl-4-oxobutanoic acid]	6.60 to 8.00
CC(C)C1=C2[C@H]3CC[C@@H]4[C@@]5(C)CC[C@H](OC(=O)CC(C)(C)C(=O)O)C(C)(C)[C@@H]5CC[C@@]4(C)[C@]3(C)CC[C@@]2(/C=C/C(=O)NC2(c3ccccn3)CC2)CC1=O [Example 12, 4-(((3aS,5aR,5bR,7aR,9S,11aR,11bR,13aS)-1-Isopropyl-5a,5b,8,8,11a-pentamethyl-2-oxo-3a-((E)-3-oxo-3-((1-(pyridin-2-yl)cyclopropyl)amino)prop-1-en-1-yl)-3,3a,4,5,5a,5b,6,7,7a,8,9,10,11,11a,11b,12,13,13a-octadecahydro-2H-cyclopenta[a]chrysen-9-yl)oxy)-2,2-dimethyl-4-oxobutanoic acid]	> 8.00
CC(C)C1=C2[C@H]3CC[C@@H]4[C@@]5(C)CC[C@H](OC(=O)CC(C)(C)C(=O)O)C(C)(C)[C@@H]5CC[C@@]4(C)[C@]3(C)CC[C@@]2(/C=C/C(=O)NC2(c3ncccn3)CC2)CC1=O [Example 13, 4-(((3aS,5aR,5bR,7aR,9S,11aR,11bR,13aS)-1-isopropyl-5a,5b,8,8,11a-pentamethyl-2-oxo-3a-((E)-3-oxo-3-((1-(pyrimidin-2-yl)cyclopropyl)amino)prop-1-en-1-yl)-3,3a,4,5,5a,5b,6,7,7a,8,9,10,11,11a,11b,12,13,13a-octadecahydro-2H-cyclopenta[a]chrysen-9-yl)oxy)-2,2-dimethyl-4-oxobutanoic acid]	6.60 to 8.00
CC(C)C1=C2[C@H]3CC[C@@H]4[C@@]5(C)CC[C@H](OC(=O)CC(C)(C)C(=O)O)C(C)(C)[C@@H]5CC[C@@]4(C)[C@]3(C)CC[C@@]2(/C=C/C(=O)N[C@H](C)c2ccccn2)CC1=O [Example 14, 4-(((3aS,5aR,5bR,7aR,9S,11aR,11bR,13aS)-1-Isopropyl-5a,5b,8,8,11a-pentamethyl-2-oxo-3a-((E)-3-oxo-3-(((R)-1-(pyridin-2-yl)ethyl)amino)prop-1-en-1-yl)-3,3a,4,5,5a,5b,6,7,7a,8,9,10,11,11a,11b,12,13,13a-octadecahydro-2H-cyclopenta[a]chrysen-9-yl)oxy)-2,2-dimethyl-4-oxobutanoic acid]	6.60 to 8.00
CC(C)C1=C2[C@H]3CC[C@@H]4[C@@]5(C)CC[C@H](OC(=O)CC(C)(C)C(=O)O)C(C)(C)[C@@H]5CC[C@@]4(C)[C@]3(C)CC[C@@]2(/C=C/C(=O)N[C@@H](C)c2ccccn2)CC1=O [Example 15, 4-(((3aS,5aR,5bR,7aR,9S,11aR,11bR,13aS)-1-Isopropyl-5a,5b,8,8,11a-pentamethyl-2-oxo-3a-((E)-3-oxo-3-(((S)-1-(pyridin-2-yl)ethyl)amino)prop-1-en-1-yl)-3,3a,4,5,5a,5b,6,7,7a,8,9,10,11,11a,11b,12,13,13a-octadecahydro-2H-cyclopenta[a]chrysen-9-yl)oxy)-2,2-dimethyl-4-oxobutanoic acid]	6.60 to 8.00
CC(C)C1=C2[C@H]3CC[C@@H]4[C@@]5(C)CC[C@H](OC(=O)CC(C)(C)C(=O)O)C(C)(C)[C@@H]5CC[C@@]4(C)[C@]3(C)CC[C@@]2(/C=C/C(=O)O)CC1=O [Example 16, 4-(((3aS,5aR,5bR,7aR,9S,11aR,11bR,13aS)-3a-((E)-2-Carboxyvinyl)-1-isopropyl-5a,5b,8,8,11a-pentamethyl-2-oxo-3,3a,4,5,5a,5b,6,7,7a,8,9,10,11,11a,11b,12,13,13a-octadecahydro-2H-cyclopenta[a]chrysen-9-yl)oxy)-2,2-dimethyl-4-oxobutanoic acid]	5.00 to 6.60
CC(C)C1=C2[C@H]3CC[C@@H]4[C@@]5(C)CC[C@H](OC(=O)CC(C)(C)C(=O)O)C(C)(C)[C@@H]5CC[C@@]4(C)[C@]3(C)CC[C@@]2(/C=C/C(=O)Nc2ccc(F)cc2)CC1=O [Example 17, 4-(((3aS,5aR,5bR,7aR,9S,11aR,11bR,13aS)-3a-((E)-3-((4-Fluorophenyl)amino)-3-oxoprop-1-en-1-yl)-1-isopropyl-5a,5b,8,8,11a-pentamethyl-2-oxo-3,3a,4,5,5a,5b,6,7,7a,8,9,10,11,11a,11b,12,13,13a-octadecahydro-2H-cyclopenta[a]chrysen-9-yl)oxy)-2,2-dimethyl-4-oxobutanoic acid]	6.60 to 8.00
CC(C)C1=C2[C@H]3CC[C@@H]4[C@@]5(C)CC[C@H](OC(=O)CC(C)(C)C(=O)O)C(C)(C)[C@@H]5CC[C@@]4(C)[C@]3(C)CC[C@@]2(/C=C/C(=O)Nc2ccc(Cl)cn2)CC1=O [Example 18, 4-(((3aS,5aR,5bR,7aR,9S,11aR,11bR,13aS)-3a-((E)-3-((5-Chloropyridin-2-yl)amino)-3-oxoprop-1-en-1-yl)-1-isopropyl-5a,5b,8,8,11a-pentamethyl-2-oxo-3,3a,4,5,5a,5b,6,7,7a,8,9,10,11,11a,11b,12,13,13a-octadecahydro-2H-cyclopenta[a]chrysen-9-yl)oxy)-2,2-dimethyl-4-oxobutanoic acid]	6.60 to 8.00
CC(C)C1=C2[C@H]3CC[C@@H]4[C@@]5(C)CC[C@H](OC(=O)CC(C)(C)C(=O)O)C(C)(C)[C@@H]5CC[C@@]4(C)[C@]3(C)CC[C@@]2(/C=C/C(=O)Nc2ccccn2)CC1=O [Example 19]	6.60 to 8.00
CC(C)C1=C2[C@H]3CC[C@@H]4[C@@]5(C)CC[C@H](OC(=O)CC(C)(C)C(=O)O)C(C)(C)[C@@H]5CC[C@@]4(C)[C@]3(C)CC[C@@]2(/C=C/C(=O)NC2(c3ccccc3Cl)CC2)CC1=O [Example 20, 4-(((3aS,5aR,5bR,7aR,9S,11aR,11bR,13aS)-3a-((E)-3-((1-(2-Chlorophenyl)cyclopropyl)amino)-3-oxoprop-1-en-1-yl)-1-isopropyl-5a,5b,8,8,11a-pentamethyl-2-oxo-3,3a,4,5,5a,5b,6,7,7a,8,9,10,11,11a,11b,12,13,13a-octadecahydro-2H-cyclopenta[a]chrysen-9-yl)oxy)-2,2-dimethyl-4-oxobutanoic acid]	6.60 to 8.00
Cc1ccc(NC(=O)/C=C/[C@@]23CC[C@]4(C)[C@H](CC[C@@H]5[C@@]6(C)CC[C@H](OC(=O)CC(C)(C)C(=O)O)C(C)(C)[C@@H]6CC[C@]54C)C2=C(C(C)C)C(=O)C3)cc1 [Example 21, 4-(((3aS,5aR,5bR,7aR,9S,11aR,11bR,13aS)-1-Isopropyl-5a,5b,8,8,11a-pentamethyl-2-oxo-3a-((E)-3-oxo-3-(p-tolylamino)prop-1-en-1-yl)-3,3a,4,5,5a,5b,6,7,7a,8,9,10,11,11a,11b,12,13,13a-octadecahydro-2H-cyclopenta[a]chrysen-9-yl)oxy)-2,2-dimethyl-4-oxobutanoic acid]	6.60 to 8.00
CC(C)C1=C2[C@H]3CC[C@@H]4[C@@]5(C)CC[C@H](OC(=O)CC(C)(C)C(=O)O)C(C)(C)[C@@H]5CC[C@@]4(C)[C@]3(C)CC[C@@]2(/C=C/C(=O)N[C@H](C)c2ccccc2Cl)CC1=O [Example 22, 4-(((3aS,5aR,5bR,7aR,9S,11aR,11bR,13aS)-3a-((E)-3-(((R)-1-(2-Chlorophenyl)ethyl)amino)-3-oxoprop-1-en-1-yl)-1-isopropyl-5a,5b,8,8,11a-pentamethyl-2-oxo-3,3a,4,5,5a,5b,6,7,7a,8,9,10,11,11a,11b,12,13,13a-octadecahydro-2H-cyclopenta[a]chrysen-9-yl)oxy)-2,2-dimethyl-4-oxobutanoic acid]	6.60 to 8.00
CC(C)C1=C2[C@H]3CC[C@@H]4[C@@]5(C)CC[C@H](OC(=O)CC(C)(C)C(=O)O)C(C)(C)[C@@H]5CC[C@@]4(C)[C@]3(C)CC[C@@]2(/C=C/C(=O)N[C@@H](C)c2cccc(Cl)c2)CC1=O [Example 23, 4-(((3aS,5aR,5bR,7aR,9S,11aR,11bR,13aS)-3a-((E)-3-(((S)-1-(3-Chlorophenyl)ethyl)amino)-3-oxoprop-1-en-1-yl)-1-isopropyl-5a,5b,8,8,11a-pentamethyl-2-oxo-3,3a,4,5,5a,5b,6,7,7a,8,9,10,11,11a,11b,12,13,13a-octadecahydro-2H-cyclopenta[a]chrysen-9-yl)oxy)-2,2-dimethyl-4-oxobutanoic acid]	6.60 to 8.00
